In publication PMC4948680 (European journal of pharmaceutical sciences : official …, 2016):

Assays:
[1] = test system: Crl:NMRI (SPF) female mice; test: Acute intravenous toxicity of CP04 in mice; assay type: in vivo; conditions: 178.5 μg/kg body weight iv
Source text: For acute intravenous toxicity studies Crl:NMRI (SPF) female mice provided by Charles River Laboratories (Germany) of 7–9 weeks of age and a body weight of 26–33 g were used. For extended acute single dose toxicity study in rats, 45 female and 45 male Wistar Hannover RccHan™ rats were used purchased from Harlan Laboratories, B.V. (The Netherlands). Animals were […] of age and the body weights were 195–235 g for males and 164–199 g for females. For in vivo stability tests and biodistribution/dosimetry studies healthy male Swiss albino mice from NCSR “Demokritos” Animal House were used, of 8–10 weeks of age and a body weight of 20–25 g. […]
The CP04 precursor was dissolved in phosphate buffered saline (PBS pH 7.4) and was administered at a dose of 178.5 μg/kg body weight and a dose volume of 5 mL/kg body weight into the caudal vein of two groups of three mice (Acute Intravenous Toxicity Study in Mice, Harlan Laboratories Study #D04314). […] Mortality, viability and clinical signs were recorded. […] Mortality/viability was recorded within the first 30 min and approximately 1, 2, 3 and 5 h after administration on test day 1 (with the clinical signs) and twice daily during days 2–15. Body weights were recorded on test day 1 (prior to administration) and on test days 8 and 15. […]

[2] = test system: Wistar Hannover RccHan rats; test: Extended acute single dose intravenous (bolus) toxicity study in rats; assay type: in vivo
Source text: For acute intravenous toxicity studies Crl:NMRI (SPF) female mice provided by Charles River Laboratories (Germany) of 7–9 weeks of age and a body weight of 26–33 g were used. For extended acute single dose toxicity study in rats, 45 female and 45 male Wistar Hannover RccHan™ rats were used purchased from Harlan Laboratories, B.V. (The Netherlands). Animals were […] of age and the body weights were 195–235 g for males and 164–199 g for females. For in vivo stability tests and biodistribution/dosimetry studies healthy male Swiss albino mice from NCSR “Demokritos” Animal House were used, of 8–10 weeks of age and a body weight of 20–25 g. For the CCK2R-expressing tumour model, male SCID mice from NCSR “Demokritos” Animal House were used, of 6 weeks of age on arrival day and a body weight of 20 ± 2 g.
The study was designed according to the microdosing concept as described in ICH guideline M3 (R2) (“Note for guidance on non-clinical safety studies for the conduct of human clinical trials and marketing authorization for pharmaceuticals” (CPMP/ICH/286/95)). In brief, 90 rats were distributed into three dose groups, each containing fifteen animals per sex (Table 1). The animals from Group 1 received only PBS, serving as controls, while groups II and III received the CP04 solution by single intravenous (bolus) injection at a low (89 μg/kg body weight: Group 2) and a high dose (890 μg/kg body weight: Group 3). A 24-h observation period followed (Allocation A), except for five animals per sex from each group for which treatment was followed by an additional 14-day treatment-free recovery period (Allocation B).
At day 2 blood samples were withdrawn from Allocation-A animals for haematology, clinical biochemistry and samples for urinary analyses were collected. These animals were necropsied on the same day and histological examinations were performed on an extended set of organs (adrenal glands, kidneys, liver, pancreas, sternum (including bone marrow), small intestine, stomach, thyroid/parathyroid glands and gross lesions). The animals from Allocation-B remained untreated for the following 14 days, but on day 15 underwent the same procedure described above (Extended Acute Intravenous (Bolus) Toxicity Study in Rats, Harlan Study #S47364).

CCK2R = test system: CCK2R; design: method as in Aloj et al., 2011; Kolenc Peitl et al., 2015; conditions: ref Aloj et al., 2011; Kolenc Peitl et al., 2015; cited from earlier work
[3] = design: species or system mice
Method: Clearance kinetics in each organ was determined by exponential curve fitting. The time-integrated activity concentration (TIAC) was obtained by integration of this exponential curve folded with the decay curve of ^111In and ^177Lu.Mouse dosimetry was calculated for both ^177Lu and ^111In using the TIAC and the 25 g RADAR mouse absorbed dose rates per unit activity S for each source and target organ combination ([Keenan et al., 2010]; [Konijnenberg et al., 2014]).

SMILES | macroscopic findings at necropsy ([1]; female mice) | survival and systemic signs of toxicity ([1]; two groups of three female mice, 14 days observation) | maximum recommended starting dose (MRSD) for a first-in-human clinical trial ([2]; HED with safety factor of 10) [µg/kg] | human equivalent dose (HED) ([2]; NOAEL × rat km/human km = 89 μg/kg × 6/37) [µg/kg] | reticulocyte count ([2]; male rats, 14 days after single bolus 890 μg/kg body weight) | mean food consumption and body weight gain ([2]; rats, single bolus 890 μg/kg body weight) | NOAEL initially established, based on pathological examination ([2]; rats, single intravenous bolus) [μg/kg body weight] | no-observed-adverse-effect-level (NOAEL) ([2]; rats, single intravenous bolus, eventually set value) [μg/kg body weight] | survival and clinical signs ([2]; rats, single iv bolus 89 or 890 μg/kg, 24-h study period) | CCK2R-affinity, IC50 (CCK2R) | Absorbed dose per injected activity, Bone [3] [mGy/MBq] | Absorbed dose per injected activity, Kidneys [3] [mGy/MBq] | Absorbed dose per injected activity, Large intestine [3] [mGy/MBq] | Absorbed dose per injected activity, Liver [3] [mGy/MBq] | Absorbed dose per injected activity, Lungs [3] [mGy/MBq] | Absorbed dose per injected activity, Pancreas [3] [mGy/MBq] | Absorbed dose per injected activity, Small intestine [3] [mGy/MBq] | Absorbed dose per injected activity, Spleen [3] [mGy/MBq] | Absorbed dose per injected activity, Stomach wall [3] [mGy/MBq] | Absorbed dose per injected activity, Total body [3] [mGy/MBq]
CSCC[C@H](NC(=O)[C@H](Cc1c[nH]c2ccccc12)NC(=O)CNC(=O)[C@H](Cc1ccc(O)cc1)NC(=O)[C@H](C)NC(=O)[C@@H](CCC(=O)O)NC(=O)[C@@H](CCC(=O)O)NC(=O)[C@@H](CCC(=O)O)NC(=O)[C@@H](CCC(=O)O)NC(=O)[C@@H](CCC(=O)O)NC(=O)[C@@H](CCC(=O)O)NC(=O)CN1CCN(CC(=O)O)CCN(CC(=O)O)CCN(CC(=O)O)CC1)C(=O)N[C@@H](CC(=O)O)C(=O)N[C@@H](Cc1ccccc1)C(N)=O [CP04, DOTA-(DGlu)6-Ala-Tyr-Gly-Trp-Met-Asp-Phe-NH2] | No macroscopic findings | All animals survived until the end of the study with no systemic signs of toxicity evident | 1.4 | 14.4 | marked decrease | moderate decrease | 890 | 89 | All animals survived the 24-h study period with no clinical signs being recorded | lower nM range | – | – | – | – | – | – | – | – | – | –
CSCC[C@H](NC(=O)[C@H](Cc1c[nH]c2ccccc12)NC(=O)CNC(=O)[C@H](Cc1ccc(O)cc1)NC(=O)[C@H](C)NC(=O)[C@@H](CCC(=O)O)NC(=O)[C@@H](CCC(=O)O)NC(=O)[C@@H](CCC(=O)O)NC(=O)[C@@H](CCC(=O)O)NC(=O)[C@@H](CCC(=O)O)NC(=O)[C@@H](CCC(=O)O)NC(=O)CN1CCN(CC(=O)O)CCN(CC(=O)O)CCN(CC(=O)O)CC1)C(=O)N[C@@H](CC(=O)O)C(=O)N[C@@H](Cc1ccccc1)C(N)=O [^177Lu-CP04, metal not drawn] | – | – | – | – | – | – | – | – | – | – | 51 | 400 | 36 | 7 | 12 | 16 | 36 | 9 | 86 | 19
